# Results: patent publication US20240261414A1, “FATTY ACID AMIDE HYDROLASE (FAAH) CLEAVABLE PRODRUGS OF BRAIN TARGETING ACTIVES AND COMBINATION WITH PERIPHERALLY RESTRICTED FAAH INHIBITORS” (Autobahn Therapeutics, Inc., priority 2021, published 2024)
# Biological target: T1, recombinant human FAAH (rhFAAH) (Homo sapiens, UniProt O00519)
# T1 construct: purchased Cayman Chemical (Ann Arbor, MI, USA)
# T1 sequence (O00519 1-579): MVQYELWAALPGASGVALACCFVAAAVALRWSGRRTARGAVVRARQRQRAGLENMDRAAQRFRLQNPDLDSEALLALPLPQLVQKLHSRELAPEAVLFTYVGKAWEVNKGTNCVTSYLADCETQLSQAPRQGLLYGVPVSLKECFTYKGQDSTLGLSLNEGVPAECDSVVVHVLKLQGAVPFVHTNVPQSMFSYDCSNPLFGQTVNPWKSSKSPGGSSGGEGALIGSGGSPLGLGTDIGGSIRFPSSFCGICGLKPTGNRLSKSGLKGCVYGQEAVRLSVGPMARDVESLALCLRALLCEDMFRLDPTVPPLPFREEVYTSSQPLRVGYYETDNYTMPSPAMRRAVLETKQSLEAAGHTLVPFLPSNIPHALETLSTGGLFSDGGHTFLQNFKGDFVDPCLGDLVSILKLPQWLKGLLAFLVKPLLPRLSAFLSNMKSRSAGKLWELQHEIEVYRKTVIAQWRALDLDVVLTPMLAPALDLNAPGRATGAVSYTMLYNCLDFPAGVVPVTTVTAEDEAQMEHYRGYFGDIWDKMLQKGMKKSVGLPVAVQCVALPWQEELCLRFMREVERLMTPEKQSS
# Experiment: FAAH substrate evaluation (acid metabolite formation)
# Type: biochemical
# Conditions: 0.5 ng/L rhFAAH, 1 μM test compound, Tris-EDTA buffer pH 8.0, room temperature, 0-60 minutes
# Experimental: Purified recombinant human FAAH (rhFAAH) was purchased from Cayman Chemical (Ann Arbor, MI, USA). The total volume for each incubation was 400 μL containing a final 0.5 ng/L rhFAAH, 1 μM test compound, 1.25% ethanol or 1 μM PF-3845 (FAAH inhibitor), and 0.1% bovine serum albumin in Tris-EDTA buffer at pH 8.0). The positive control was LL-341001. The incubation was conducted at the room temperature. At 0, 5, 15, 30 and 60 minutes, an aliquot of 30 μL reaction mixtures was removed and mixed with 300 μL acetonitrile containing 5 ng/mL terfenadine and 10 ng/mL tolbutamide as internal standards to quench the reaction. The resulting mixture was centrifuged at 4000 rpm, 4° C. for 15 minutes, and 100 μL supernatant was ready for LC-MS/MS analysis to measure the formation of acid metabolite.
# Acquity Ultra Performance LC system from Waters was used for sample analysis. The chromatography was performed on a reverse phase Kinetex 2.6 μm C18 column, 2.1×30 mm, 100 Å. The mobile phase A comprised of 0.1% formic acid in water and mobile phase B comprised of 0.1% formic acid in acetonitrile with a 2-min run time at the flow rate of 0.8 mL/min for the acid metabolite from positive control or a 1.5 min run time at the flow rate of 0.9 mL/min for the acid metabolite of test compounds. The mass spectrometer (API-5500 and API Q Trap 4000 Applied Biosystems/MDS SCIEX Instruments, Framingham, MA, USA) was operated under ESI positive or negative ion MRM mode.
# The formation of acid metabolite was monitored and quantified using one calibration point of 1 μM. The observed rate constant (ke) for the acid metabolite formation was calculated by plotting the metabolite concentration versus time of incubation with the slope being ke and is shown in Table 2.
row,Compound,ke (observed rate constant for the acid metabolite formation)
1,"Cc1c(C=CC(=O)Nc2cccnn2)ccc(OCc2cc(Cl)cc3c2OC(C)(C)C3)c1C [Compound 2, 3-(4-((5-chloro-2,2-dimethyl-2,3-dihydrobenzofuran-7-yl)methoxy)-2,3-dimethylphenyl)-N-(pyridazin-3-yl)propenamide]",B (ke is less than 1.0 and more than or equal to 0.1)
2,"Cc1c(CCC(=O)NC2CC2)ccc(OCc2cc(Cl)cc3c2OC(C)(C)C3)c1C [Compound 3, 3-(4-((5-chloro-2,2-dimethyl-2,3-dihydrobenzofuran-7-yl)methoxy)-2,3-dimethylphenyl)-N-cyclopropylpropanamide]",B (ke is less than 1.0 and more than or equal to 0.1)
3,"Cc1c(C=CC(=O)N[C@@H]2C[C@H]2F)ccc(OCc2cc(Cl)cc3c2OC(C)(C)C3)c1C [Compound 4, 3-(4-((5-chloro-2,2-dimethyl-2,3-dihydrobenzofuran-7-yl)methoxy)-2,3-dimethylphenyl)-N-((1R,2R)-2-fluorocyclopropyl)propenamide]",B (ke is less than 1.0 and more than or equal to 0.1)
4,"Cc1c(C=CC(=O)N[C@@H]2C[C@@H]2F)ccc(OCc2cc(Cl)cc3c2OC(C)(C)C3)c1C [Compound 5, 3-(4-((5-chloro-2,2-dimethyl-2,3-dihydrobenzofuran-7-yl)methoxy)-2,3-dimethylphenyl)-N-((1R,2S)-2-fluorocyclopropyl)propenamide]",B (ke is less than 1.0 and more than or equal to 0.1)
5,"Cc1c(C=CC(=O)NCCCF)ccc(OCc2cc(Cl)cc3c2OC(C)(C)C3)c1C [Compound 6, 3-(4-((5-chloro-2,2-dimethyl-2,3-dihydrobenzofuran-7-yl)methoxy)-2,3-dimethylphenyl)-N-(3-fluoropropyl)propenamide]",B (ke is less than 1.0 and more than or equal to 0.1)
6,"Cc1c(C=CC(=O)Nc2ccncc2)ccc(OCc2cc(Cl)cc3c2OC(C)(C)C3)c1C [Compound 7, 3-(4-((5-chloro-2,2-dimethyl-2,3-dihydrobenzofuran-7-yl)methoxy)-2,3-dimethylphenyl)-N-(pyridin-4-yl)propenamide]",A (ke is more than or equal to 1.0)
7,"Cc1c(C=CC(N)=O)ccc(OCc2cc(Cl)cc3c2OC(C)(C)C3)c1C [Compound 9, 3-(4-((5-chloro-2,2-dimethyl-2,3-dihydrobenzofuran-7-yl)methoxy)-2,3-dimethylphenyl)propenamide]",A (ke is more than or equal to 1.0)
8,"CNC(=O)CCc1ccc(OCc2cc(Cl)cc3c2OC(C)(C)C3)c(C)c1C [Compound 10, 3-(4-((5-chloro-2,2-dimethyl-2,3-dihydrobenzofuran-7-yl)methoxy)-2,3-dimethylphenyl)-N-methylpropanamide]",A (ke is more than or equal to 1.0)
9,"Cc1c(C=CC(=O)NCCO)ccc(OCc2cc(Cl)cc3c2OC(C)(C)C3)c1C [Compound 11, 3-(4-((5-chloro-2,2-dimethyl-2,3-dihydrobenzofuran-7-yl)methoxy)-2,3-dimethylphenyl)-N-(2-hydroxyethyl)propenamide]",A (ke is more than or equal to 1.0)
10,CCCCC[C@H](O)CC[C@@H]1[C@H]2Cc3cccc(OCC(=O)NC4CC4)c3C[C@H]2C[C@H]1O [Compound 12],C (ke is less than 0.1 and more than 0)
11,CCCCC[C@H](O)CC[C@@H]1[C@H]2Cc3cccc(OCC(=O)NC)c3C[C@H]2C[C@H]1O [Compound 13],D (ke is 0)
12,CCCCC[C@H](O)CC[C@@H]1[C@H]2Cc3cccc(OCC(N)=O)c3C[C@H]2C[C@H]1O [Compound 14],B (ke is less than 1.0 and more than or equal to 0.1)
13,O=C(NC1CC1)c1ccc2nc(-c3cc(Cl)cc(Cl)c3)oc2c1 [Compound 15],D (ke is 0)
14,CNC(=O)c1ccc2nc(-c3cc(Cl)cc(Cl)c3)oc2c1 [Compound 16],D (ke is 0)
15,CCc1cc(/C(C)=N/OCc2ccc(C3CCCCC3)c(C(F)(F)F)c2)ccc1CN1CC(C(=O)NCCO)C1 [Compound 17],A (ke is more than or equal to 1.0)
16,CCc1cc(/C(C)=N/OCc2ccc(C3CCCCC3)c(C(F)(F)F)c2)ccc1CN1CC(C(=O)NC)C1 [Compound 18],B (ke is less than 1.0 and more than or equal to 0.1)

row,Compound,ke (observed rate constant for the acid metabolite formation)
1,CCc1cc(/C(C)=N/OCc2ccc(C3CCCCC3)c(C(F)(F)F)c2)ccc1CN1CC(C(N)=O)C1 [Compound 19],D (ke is 0)
2,CNC(=O)C[C@H]1CCc2c1[nH]c1ccc(OCc3ccc(C4CCCC4)c(C(F)(F)F)c3)cc21 [Compound 21],D (ke is 0)
3,CNC(=O)CCSCc1ccc(-c2onc(C)c2NC(=O)O[C@H](C)c2ccccc2Cl)cc1 [Compound 23],B (ke is less than 1.0 and more than or equal to 0.1)
4,Cc1noc(-c2ccc(CSCCC(N)=O)cc2)c1NC(=O)O[C@H](C)c1ccccc1Cl [Compound 24],B (ke is less than 1.0 and more than or equal to 0.1)
5,CCc1cc(/C(C)=N/OCc2ccc(C3CCCCC3)c(C(F)(F)F)c2)ccc1CN1CC(C(=O)NC2CC2F)C1 (stereo not shown) [Compound 28],D (ke is 0)
6,COc1ccc(NC(=O)c2ccc(F)c(OCCCc3c(C)n[nH]c3C)c2)cn1 [Compound 29],B (ke is less than 1.0 and more than or equal to 0.1)
7,Cc1noc(-c2ccc(NC(=O)CCC(=O)NCCCF)cc2F)c1NC(=O)O[C@H](C)c1ccccc1Cl [Compound 30],B (ke is less than 1.0 and more than or equal to 0.1)
8,Cc1noc(-c2ccc(NC(=O)CCC(=O)NC3CC3)cc2F)c1NC(=O)O[C@H](C)c1ccccc1Cl [Compound 31],D (ke is 0)
9,O=C(C[C@H]1CCc2c1[nH]c1ccc(OCc3ccc(C4CCCC4)c(C(F)(F)F)c3)cc21)NC1CC1F (stereo partly shown) [Compound 32],C (ke is less than 0.1 and more than 0)
10,Cc1noc(-c2ccc(CSCCC(=O)NC3CC3)cc2)c1NC(=O)OC(C)c1ccccc1Cl (stereo not shown) [Compound 33],D (ke is 0)
11,Cc1noc(NC(=O)CCSCc2ccc(-c3onc(C)c3NC(=O)OC(C)c3ccccc3Cl)cc2)c1C (stereo not shown) [Compound 34],D (ke is 0)
12,Cc1c(CCC(=O)Nc2ccncc2)ccc(OCc2cc(Cl)cc3c2OC(C)(C)C3)c1C [Compound 35],B (ke is less than 1.0 and more than or equal to 0.1)
13,Cc1n[nH]c(C)c1CCCOc1cc(C(N)=O)ccc1F [Compound 36],D (ke is 0)
14,COc1ccc(NC(=O)c2ccc3nc(-c4cc(Cl)cc(Cl)c4)oc3c2)nn1 [Compound 37],B (ke is less than 1.0 and more than or equal to 0.1)
15,CCc1cc(/C(C)=N/OCc2ccc(C3CCCCC3)c(C(F)(F)F)c2)ccc1CN1CC(C(=O)Nc2ccncc2)C1 [Compound 38],A (ke is more than or equal to 1.0)
